Experimental data: the supplement of paper PMC10307832

Assays:
Assay in all cases: relative viability (nuclei count vs DMSO), 5 days (fraction); higher = more cells survive
[1] = compound: Cn1nnc2c(C(N)=O)ncn2c1=O [Temozolomide] + Cc1cc(Nc2cc(N3CCN(C)CC3)nc(Sc3ccc(NC(=O)C4CC4)cc3)n2)n[nH]1 [Tozasertib] (partner 0.1 µM)
In short: (§1)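 Medians of duplicate plates are given as relative viability. That measure is the nuclei count in treated wells divided by the count in vehicle wells. Counts were taken on 4× images of lung cancer cell lines in 1536-well plates, 5 days after pin-tool dosing the day after seeding with one drug alone or a fixed anchor-drug dose plus five library-drug doses (not always all listed) in √10 steps.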

[2] = compound: Cn1nnc2c(C(N)=O)ncn2c1=O [Temozolomide] + Nc1nc2[nH]cc(CCc3ccc(C(=O)N[C@@H](CCC(=O)O)C(=O)O)cc3)c2c(=O)[nH]1 [Pemetrexed] (partner 0.2 µM)
In short: as §1

Temozolomide + Foretinib = compound: Cn1nnc2c(C(N)=O)ncn2c1=O [Temozolomide] + COc1cc2c(Oc3ccc(NC(=O)C4(C(=O)Nc5ccc(F)cc5)CC4)cc3F)ccnc2cc1OCCCN1CCOCC1 [Foretinib] (partner 0.25 µM)
In short: as §1

AZD5582 + Pemetrexed = compound: C[C@@H](C(=O)N[C@@H](C1CCCCC1)C(=O)N2CCC[C@H]2C(=O)N[C@@H]3[C@@H](CC4=CC=CC=C34)OCC#CC#CCO[C@@H]5CC6=CC=CC=C6[C@@H]5NC(=O)[C@@H]7CCCN7C(=O)[C@H](C8CCCCC8)NC(=O)[C@H](C)NC)NC [AZD5582] + Nc1nc2[nH]cc(CCc3ccc(C(=O)N[C@@H](CCC(=O)O)C(=O)O)cc3)c2c(=O)[nH]1 [Pemetrexed] (partner 0.2 µM)
In short: as §1

| Cell Line | relative viability ([1]; first compound 0.2 µM) | relative viability ([1]; first compound 0.6325 µM) | relative viability ([1]; first compound 2 µM) | relative viability ([1]; first compound 6.325 µM) | relative viability ([1]; first compound 20 µM) | relative viability ([2]; first compound 0.2 µM) | relative viability ([2]; first compound 0.6325 µM) | relative viability ([2]; first compound 2 µM) | relative viability ([2]; first compound 6.325 µM) | relative viability ([2]; first compound 20 µM) | relative viability (Temozolomide + Foretinib; first compound 0.2 µM) | relative viability (Temozolomide + Foretinib; first compound 0.6325 µM) | relative viability (Temozolomide + Foretinib; first compound 2 µM) | relative viability (Temozolomide + Foretinib; first compound 6.325 µM) | relative viability (Temozolomide + Foretinib; first compound 20 µM) | relative viability (AZD5582 + Pemetrexed; first compound 0.001581 µM) | relative viability (AZD5582 + Pemetrexed; first compound 0.005 µM) | relative viability (AZD5582 + Pemetrexed; first compound 0.01581 µM) | relative viability (AZD5582 + Pemetrexed; first compound 0.05 µM) |
| --- | --- | --- | --- | --- | --- | --- | --- | --- | --- | --- | --- | --- | --- | --- | --- | --- | --- | --- | --- |
| PC-3 [JPC-3] | 0.935 | 0.945 | 0.934 | 0.901 | 0.431 | 1.22 | 1.13 | 1.16 | 1.06 | 0.458 | 1.11 | 1.03 | 0.998 | 1.03 | 0.526 | 0.824 | 0.957 | 1.03 | 0.519 |
| NCI-H23 | 0.4 | 0.337 | 0.35 | 0.381 | 0.249 | 0.825 | 0.749 | 0.716 | 0.565 | 0.677 | 1.02 | 0.979 | 0.97 | 0.778 | 1.05 | 0.578 | 0.514 | 0.55 | 0.455 |
| NCI-H596 | 0.978 | 1.04 | 0.89 | 0.769 | 1.01 | 0.515 | 0.535 | 0.621 | 0.465 | 0.574 | 0.952 | 0.925 | 0.997 | 0.451 | 0.818 | 0.323 |  | 0.448 | 0.263 |
| LU99A | 0.259 | 0.262 | 0.275 | 0.259 | 0.303 | 0.208 | 0.179 | 0.175 | 0.185 | 0.252 | 0.874 | 0.851 | 0.832 | 0.784 | 0.73 | 0.169 | 0.186 | 0.168 | 0.185 |
| LCLC-97TM1 | 0.186 | 0.242 | 0.212 | 0.184 | 0.191 | 0.195 | 0.198 | 0.177 | 0.156 | 0.209 | 0.919 | 0.906 | 0.86 | 0.979 | 0.934 | 0.185 | 0.205 | 0.16 | 0.16 |
| LCLC-103H | 0.486 | 0.481 | 0.566 | 0.456 | 0.413 | 0.467 | 0.461 | 0.519 | 0.465 | 0.515 | 0.834 | 0.787 | 0.895 | 0.73 | 0.713 | 0.386 | 0.426 | 0.443 | 0.352 |
| HCC-78 | 0.282 | 0.487 | 0.497 | 0.493 | 0.425 | 0.896 | 0.921 | 0.927 |  | 0.958 | 0.487 | 0.547 | 0.616 | 0.551 | 0.552 | 0.931 | 0.878 | 0.901 | 0.949 |
| NCI-H358 | 0.0983 | 0.101 | 0.104 | 0.106 | 0.115 | 0.196 | 0.173 | 0.18 | 0.164 | 0.17 | 0.477 | 0.707 | 0.614 | 0.657 | 0.541 | 0.178 | 0.171 | 0.179 | 0.17 |
| SK-MES-1 | 1.02 | 0.919 | 0.985 | 0.939 | 0.973 | 1.01 | 0.911 | 0.975 | 0.92 | 0.866 | 0.972 | 1.05 | 1.09 | 0.892 | 0.521 | 0.904 | 1.01 | 0.975 | 0.939 |
| NCI-H838 | 0.267 | 0.286 | 0.309 | 0.264 | 0.254 | 0.247 | 0.256 | 0.254 | 0.252 | 0.233 | 1.01 | 0.939 | 1.02 | 0.994 | 1.09 | 0.258 | 0.246 | 0.235 | 0.262 |
| HCC-15 | 0.522 | 0.412 | 0.5 | 0.384 | 0.599 | 0.24 | 0.221 | 0.227 | 0.207 | 0.228 | 1.15 | 1.04 | 1.06 | 0.969 | 1.1 | 0.227 | 0.197 | 0.218 | 0.211 |
| EPLC-272H | 0.263 | 0.191 | 0.232 | 0.28 | 0.252 | 0.321 | 0.322 | 0.356 | 0.247 | 0.317 | 0.537 | 0.697 | 0.628 | 0.712 | 0.497 |  |  | 0.346 | 0.104 |
| UMC-11 | 0.204 | 0.198 | 0.214 | 0.198 | 0.191 | 0.758 | 0.712 | 0.835 | 0.805 | 0.588 | 1.11 | 1.06 | 1.16 | 0.872 | 0.57 | 0.73 | 0.848 | 0.755 | 0.864 |
| HARA | 0.0933 | 0.112 | 0.107 | 0.11 | 0.108 | 0.203 | 0.228 | 0.269 | 0.2 | 0.273 | 0.8 | 0.991 | 1.05 | 0.671 | 0.641 | 0.22 | 0.213 | 0.214 | 0.231 |
| NCI-H2170 |  | 0.75 | 0.756 | 0.668 | 0.405 |  | 0.283 | 0.264 | 0.253 | 0.237 |  | 1.01 | 1.05 | 0.993 | 0.526 | 0.26 | 0.249 | 0.268 | 0.269 |
| 201T | 1.01 | 0.888 | 0.987 | 0.943 | 0.914 | 0.346 | 0.345 | 0.398 | 0.339 | 0.316 | 0.901 | 1.2 | 1.14 | 1.08 | 1.03 | 0.311 | 0.299 | 0.298 | 0.281 |
| NCI-H1944 | 0.241 | 0.273 | 0.327 | 0.284 | 0.257 | 0.546 | 0.601 | 0.564 | 0.58 | 0.623 | 0.756 | 0.922 | 0.847 | 0.875 | 0.795 | 0.455 | 0.556 | 0.521 | 0.62 |
